According to patent EP2641901A1, “Novel microbiocides” (Syngenta Participations AG, priority 2012, dated 2013):

Legend:
[1] = tested on: Blumeria graminis f. sp. tritici; assay: Blumeria graminis f. sp. tritici / wheat / leaf disc preventative (Powdery mildew on wheat); type: in vivo; conditions: 200ppm, wheat leaf segments cv. Kanzler, inoculated 1 day after application, percent disease control compared to untreated, 6 - 8 days after application
Procedure: Blumeria graminis f. sp. tritici (Erysiphe graminis f. sp. tritici) / wheat / leaf disc preventative (Powdery mildew on wheat): Wheat leaf segments cv. Kanzler were placed on agar in a 24-well plate and sprayed with the formulated test compound diluted in water at an application rate of 200ppm. The leaf disks were inoculated by shaking powdery mildew infected plants above the test plates 1 day after application. The inoculated leaf disks were incubated at 20°C and 60% relative humidity under a light regime of 24 h darkness followed by 12h/12h (dark/light) in a climate chamber and the activity of a compound was assessed as percent disease control compared to untreated when an appropriate level of disease damage appears on untreated check leaf segments (6 - 8 days after application). […] P.01, P.02

Thanatephorus cucumeris = Thanatephorus cucumeris (Rhizoctonia solani) / liquid culture (foot rot, damping-off); type: cell-based; conditions: 200ppm; liquid culture (PDB potato dextrose broth), 24°C; inhibition of growth determined photometrically 3-4 days after application
Procedure: Thanatephorus cucumeris (Rhizoctonia solani) / liquid culture (foot rot, damping-off): Mycelia fragments of a newly grown liquid culture of the fungus were directly mixed into nutrient broth (PDB potato dextrose broth). After placing a DMSO solution of the test compounds into a 96-well microtiter plate at an application rate of 200ppm, the nutrient broth containing the fungal material was added. The test plates were incubated at 24°C and the inhibition of growth was determined photometrically 3-4 days after application. […] P.01, P.02

Phaeosphaeria nodorum = Phaeosphaeria nodorum / wheat / leaf disc preventative (Glume blotch); type: in vivo; conditions: 200ppm, wheat leaf segments cv Kanzler, inoculated 2 days after application, percent disease control compared to untreated, 5 - 7 days after application
Procedure: Phaeosphaeria nodorum (Septorla nodorum) / wheat / leaf disc preventative (Glume blotch): Wheat leaf segments cv Kanzler were placed on agar in a 24-well plate and sprayed with formulated test compound diluted in water at an application rate of 200ppm. The leaf disks were inoculated with a spore suspension of the fungus 2 days after application. The inoculated test leaf disks were incubated at 20°C and 75% relative humidity under a light regime of 12/12 h (light/dark) in a climate cabinet and the activity of a compound was assessed as percent disease control compared to untreated when an appropriate level of disease damage appears in untreated check leaf disks (5 - 7 days after application). […] P.01, P.02

[2] = tested on: Puccinia recondita f. sp. tritici; assay: Puccinia recondita f. sp. tritici / wheat / leaf disc preventative (Brown rust); type: in vivo; conditions: 200ppm, wheat leaf segments cv Kanzler, inoculated 1 day after application, percent disease control compared to untreated, 7 - 9 days after application
Procedure: Puccinia recondita f. sp. tritici l wheat / leaf disc preventative (Brown rust): Wheat leaf segments cultivated variety (cv) Kanzler were placed on agar in 24-well plates and sprayed with formulated test compound diluted in water at an application rate of 200ppm. The leaf disks were inoculated with a spore suspension of the fungus 1 day after application. The inoculated leaf segments were incubated at 19°C and 75% relative humidity under a light regime of 12/12 h (light/dark) in a climate cabinet and the activity of a compound was assessed as percent disease control compared to untreated when an appropriate level of disease damage appears in untreated check leaf segments (7 - 9 days after application). […] P.01, P.02

Pyrenophora teres = Pyrenophora teres / barley / leaf disc preventative (Net blotch); type: in vivo; conditions: 200ppm, barley leaf segments cv Hasso, inoculated two days after application, disease control compared to untreated, 5 - 7 days after application
Procedure: Pyrenophora teres / barley / leaf disc preventative (Net blotch): Barley leaf segments cv Hasso were placed on agar in a 24-well plate and sprayed with formulated test compound diluted in water at an application rate of 200ppm. The leaf segments were inoculated with a spore suspension of the fungus two days after application of the test solution. The inoculated leaf segments were incubated at 20°C and 65% relative humidity under a light regime of 12/12 h (light/dark) in a climate cabinet and the activity of a compound was assessed as disease control compared to untreated when an appropriate level of disease damage appears in untreated check leaf segments (5 - 7 days after application). […] P.01, P.02

Magnaporthe grisea = type: in vivo; conditions: 200ppm; rice leaf segments cv. Ballila, preventative, inoculated 2 days after application; percent disease control compared to untreated, 5 - 7 days after application
Monographella nivalis = Monographella nivalis (Microdochium nivale) / liquid culture (foot rot cereals); type: cell-based; conditions: 200ppm; liquid culture (PDB potato dextrose broth), 24°C; inhibition of growth determined photometrically 4-5 days after application
Procedure: (§1) Monographella nivalis (Microdochium nivale) / liquid culture (foot rot cereals): Conidia of the fungus from cryogenic storage were directly mixed into nutrient broth (PDB potato dextrose broth). After placing a DMSO solution of test compound into a 96-well microtiter plate at an application rate of 200ppm, the nutrient broth containing the fungal spores was added. The test plates were incubated at 24°C and the inhibition of growth was determined photometrically 4-5 days after application. […] P.01, P.02

Botryotinia fuckeliana = Botryotinia fuckeliana (Botrytis cinerea) / liquid culture (Gray mould); type: cell-based; conditions: 200ppm; liquid culture (Vogels broth), 24°C; inhibition of growth determined photometrically 3-4 days after application
Procedure: as §1, with “Botryotinia fuckeliana (Botrytis cinerea)” for “Monographella nivalis (Microdochium nivale)”, “(Gray mould):” for “(foot rot cereals):”, “(Vogels” for “(PDB potato dextrose”, “3-4” for “4-5”

Glomerella lagenarium = Glomerella lagenarium (Colletotrichum lagenarium) / liquid culture (Anthracnose); type: cell-based; conditions: 200ppm; liquid culture (PDB potato dextrose broth), 24°C; inhibition of growth measured photometrically 3-4 days after application
Procedure: as §1, with “Glomerella lagenarium (Colletotrichum lagenarium)” for “Monographella nivalis (Microdochium nivale)”, “(Anthracnose) :” for “(foot rot cereals):”, “measured” for “determined”, “3-4” for “4-5”

[3] = tested on: Puccinia recondita f. sp. tritici; assay: Puccinia recondita f. sp. tritici / wheat / leaf disc curative (Brown rust); type: in vivo; conditions: 200ppm, wheat leaf segments cv Kanzler, applied 1 day after inoculation, percent disease control compared to untreated, 6 - 8 days after application
Procedure: Puccinia recondita f. sp. tritici / wheat / leaf disc curative (Brown rust): Wheat leaf segments cv Kanzler were placed on agar in 24-well plates. The leaf segments were inoculated with a spore suspension of the fungus. The plates were stored in darkness at 19°C and 75% relative humidity. The formulated test compound diluted in water was applied at an application rate of 200ppm 1 day after inoculation. The leaf segments were incubated at 19°C and 75% relative humidity under a light regime of 12/12 h (light/dark) in a climate cabinet and the activity of a compound was assessed as percent disease control compared to untreated when an appropriate level of disease damage appears in untreated check leaf segments (6 - 8 days after application). […] P.01, P.02

[4] = tested on: Mycosphaerella graminicola; assay: Mycosphaerella graminicola (Septoria tritici) / liquid culture (Septoria blotch); type: cell-based; conditions: 200ppm; liquid culture (PDB potato dextrose broth), 24°C; inhibition of growth determined photometrically 4-5 days after application
Procedure: as §1, with “Mycosphaerella graminicola (Septoria tritici)” for “Monographella nivalis (Microdochium nivale)”, “(Septoria blotch):” for “(foot rot cereals):”

Pythium ultimum = Pythium ultimum / liquid culture (seedling damping off); type: cell-based; conditions: 200ppm; liquid culture (potato dextrose broth), 24°C; inhibition of growth determined photometrically 2-3 days after application
Procedure: Pythium ultimum / liquid culture (seedling damping off) Mycelia fragments and oospores of a newly grown liquid culture of the fungus were directly mixed into nutrient broth (potato dextrose broth). After placing a DMSO solution of test compound into a 96-well format microtiter plate at an application rate of 200ppm, the nutrient broth containing the fungal mycelia/spore mixture was added. The test plates were incubated at 24°C and the inhibition of growth was determined photometrically 2-3 days after application. […] P.01, P.02

Mycosphaerella arachidis = Mycosphaerella arachidis (Cercospora arachidicola) / liquid culture (early leaf spot); type: cell-based; conditions: 200ppm; liquid culture (PDB potato dextrose broth), 24°C; inhibition of growth determined photometrically 4-5 days after application
Procedure: as §1, with “Mycosphaerella arachidis (Cercospora arachidicola)” for “Monographella nivalis (Microdochium nivale)”, “(early leaf spot):” for “(foot rot cereals):”

CO/N=C1\CCCc2ccc(CCCO/N=C(\C)c3cccc(C)n3)nc21 [P.02]
at least 80%: control of Blumeria graminis [1] | control of Thanatephorus cucumeris (Thanatephorus cucumeris) | control of Phaeosphaeria nodorum (Phaeosphaeria nodorum) | control of Puccinia recondita f. sp. tritici [2] | control of Pyrenophora teres (Pyrenophora teres) | control of Magnaporthe grisea (Magnaporthe grisea) | control of Monographella nivalis (Monographella nivalis) | control of Botryotinia fuckeliana (Botryotinia fuckeliana) | control of Glomerella lagenarium (Glomerella lagenarium) | control of Puccinia recondita f. sp. tritici [3] | control of Mycosphaerella graminicola [4] | control of Pythium ultimum (Pythium ultimum) | control of Mycosphaerella arachidis (Mycosphaerella arachidis)
